# Assay results taken from the kinase profiling compilation of Christmann-Franck et al. (2016).
# “And” between values parts separate entries of the source, which are not always exact repeats. Equal entries are not always repeated.
# Key:
# Assay in all cases: KINOMEscan competition binding
# Details in all cases: compound 10.0 µM
# CDK17 (human) = CDK17 (human) (UniProt Q00537)
# PIM2 (human) = PIM2 (human) (UniProt Q9P1W9)
# PAK1 (human) = PAK1 (human) (UniProt Q13153)
# EPHB4 (human) = EPHB4 (human) (UniProt P54760)
# SRPK2 (human) = SRPK2 (human) (UniProt P78362)
# FES (human) = FES (human) (UniProt P07332)
# SGK3 (human) = SGK3 (human) (UniProt Q96BR1)
# NTRK2 (human) = NTRK2 (human) (UniProt Q16620)
# ABL2 (human) = ABL2 (human) (UniProt P42684)
# FGFR3 (human) = FGFR3 (human) (UniProt P22607)
# CDC42BPG (human) = CDC42BPG (human) (UniProt Q6DT37)
# PRKCI (human) = PRKCI (human) (UniProt P41743)
# SGK110 (human) = SGK110 (human) (UniProt P0C264)
# EPHA2 (human) = EPHA2 (human) (UniProt P29317)
# MAP2K1 (human) = MAP2K1 (human) (UniProt Q02750)
# PDGFRB (human) = PDGFRB (human) (UniProt P09619)
# CDK8 (human) = CDK8 (human) (UniProt P49336)
# CDK13 (human) = CDK13 (human) (UniProt Q14004)
# EPHA1 (human) = EPHA1 (human) (UniProt P21709)
# CPK1 (P.falciparum) = system: CPK1 (P.falciparum)
# STK17B (human) = STK17B (human) (UniProt O94768)
# IKBKB (human) = IKBKB (human) (UniProt O14920)
# IGF1R (human) = IGF1R (human) (UniProt P08069)
# CRK2 (P.falciparum) = CRK2 (P.falciparum) (UniProt P61075)
# KDR (human) = KDR (human) (UniProt P35968)
# CSK (human) = CSK (human) (UniProt P41240)
# CDKL1 (human) = CDKL1 (human) (UniProt Q00532)
# PIM3 (human) = PIM3 (human) (UniProt Q86V86)
# CDK9 (human) = CDK9 (human) (UniProt P50750)
# CDK18 (human) = CDK18 (human) (UniProt Q07002)
# EPHA4 (human) = EPHA4 (human) (UniProt P54764)
# ADCK4 (human) = ADCK4 (human) (UniProt Q96D53)
# BMPR2 (human) = BMPR2 (human) (UniProt Q13873)
# ITK (human) = ITK (human) (UniProt Q08881)
# STK33 (human) = STK33 (human) (UniProt Q9BYT3)
# LIMK1 (human) = LIMK1 (human) (UniProt P53667)
# PLK4 (human) = PLK4 (human) (UniProt O00444)
# [1] = system: FGFR3 (human), P22607 [G697C]
# PRKACB (human) = PRKACB (human) (UniProt P22694)
# TEC (human) = TEC (human) (UniProt P42680)
# STK3 (human) = STK3 (human) (UniProt Q13188)
# Chain of SGK3 (human) (Q96BR1 whole entry, looked up): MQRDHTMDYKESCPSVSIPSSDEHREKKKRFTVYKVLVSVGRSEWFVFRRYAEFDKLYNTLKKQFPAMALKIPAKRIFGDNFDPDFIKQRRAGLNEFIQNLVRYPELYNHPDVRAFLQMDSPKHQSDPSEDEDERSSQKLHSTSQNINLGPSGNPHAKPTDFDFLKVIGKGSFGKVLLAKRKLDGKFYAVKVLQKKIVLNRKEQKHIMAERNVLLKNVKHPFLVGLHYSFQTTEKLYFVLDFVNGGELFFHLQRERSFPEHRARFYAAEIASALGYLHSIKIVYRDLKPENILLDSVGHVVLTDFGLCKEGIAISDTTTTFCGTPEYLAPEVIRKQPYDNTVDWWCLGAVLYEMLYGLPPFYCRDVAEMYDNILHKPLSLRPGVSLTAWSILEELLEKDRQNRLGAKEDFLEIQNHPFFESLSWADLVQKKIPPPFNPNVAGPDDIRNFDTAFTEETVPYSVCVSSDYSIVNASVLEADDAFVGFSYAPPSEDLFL
# Chain of EPHA4 (human) (P54764 whole entry, looked up): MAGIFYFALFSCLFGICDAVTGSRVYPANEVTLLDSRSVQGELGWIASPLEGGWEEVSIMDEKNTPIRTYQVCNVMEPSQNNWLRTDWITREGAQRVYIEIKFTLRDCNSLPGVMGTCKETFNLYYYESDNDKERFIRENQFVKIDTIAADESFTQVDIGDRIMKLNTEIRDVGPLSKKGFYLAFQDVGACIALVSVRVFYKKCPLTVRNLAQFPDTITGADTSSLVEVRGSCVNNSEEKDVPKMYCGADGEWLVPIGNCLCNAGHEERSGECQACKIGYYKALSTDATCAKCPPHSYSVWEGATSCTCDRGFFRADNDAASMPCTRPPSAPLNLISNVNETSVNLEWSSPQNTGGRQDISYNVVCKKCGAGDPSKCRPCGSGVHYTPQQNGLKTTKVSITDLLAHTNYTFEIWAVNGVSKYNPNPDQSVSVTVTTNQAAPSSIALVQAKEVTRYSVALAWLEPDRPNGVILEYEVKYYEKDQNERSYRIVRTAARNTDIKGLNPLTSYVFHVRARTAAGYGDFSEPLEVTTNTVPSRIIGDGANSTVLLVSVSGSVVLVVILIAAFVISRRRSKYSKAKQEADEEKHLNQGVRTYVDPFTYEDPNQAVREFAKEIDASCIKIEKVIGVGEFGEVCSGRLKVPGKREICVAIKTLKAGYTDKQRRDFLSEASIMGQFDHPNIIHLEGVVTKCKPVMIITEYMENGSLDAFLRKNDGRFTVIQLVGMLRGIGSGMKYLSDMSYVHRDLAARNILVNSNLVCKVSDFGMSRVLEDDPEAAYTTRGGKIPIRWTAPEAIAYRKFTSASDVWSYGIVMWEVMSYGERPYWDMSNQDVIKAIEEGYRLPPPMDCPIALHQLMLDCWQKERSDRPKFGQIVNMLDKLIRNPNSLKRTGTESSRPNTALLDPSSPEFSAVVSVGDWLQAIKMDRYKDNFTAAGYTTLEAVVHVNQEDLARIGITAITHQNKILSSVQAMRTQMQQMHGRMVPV
# Chain of NTRK2 (human) (Q16620 whole entry, looked up): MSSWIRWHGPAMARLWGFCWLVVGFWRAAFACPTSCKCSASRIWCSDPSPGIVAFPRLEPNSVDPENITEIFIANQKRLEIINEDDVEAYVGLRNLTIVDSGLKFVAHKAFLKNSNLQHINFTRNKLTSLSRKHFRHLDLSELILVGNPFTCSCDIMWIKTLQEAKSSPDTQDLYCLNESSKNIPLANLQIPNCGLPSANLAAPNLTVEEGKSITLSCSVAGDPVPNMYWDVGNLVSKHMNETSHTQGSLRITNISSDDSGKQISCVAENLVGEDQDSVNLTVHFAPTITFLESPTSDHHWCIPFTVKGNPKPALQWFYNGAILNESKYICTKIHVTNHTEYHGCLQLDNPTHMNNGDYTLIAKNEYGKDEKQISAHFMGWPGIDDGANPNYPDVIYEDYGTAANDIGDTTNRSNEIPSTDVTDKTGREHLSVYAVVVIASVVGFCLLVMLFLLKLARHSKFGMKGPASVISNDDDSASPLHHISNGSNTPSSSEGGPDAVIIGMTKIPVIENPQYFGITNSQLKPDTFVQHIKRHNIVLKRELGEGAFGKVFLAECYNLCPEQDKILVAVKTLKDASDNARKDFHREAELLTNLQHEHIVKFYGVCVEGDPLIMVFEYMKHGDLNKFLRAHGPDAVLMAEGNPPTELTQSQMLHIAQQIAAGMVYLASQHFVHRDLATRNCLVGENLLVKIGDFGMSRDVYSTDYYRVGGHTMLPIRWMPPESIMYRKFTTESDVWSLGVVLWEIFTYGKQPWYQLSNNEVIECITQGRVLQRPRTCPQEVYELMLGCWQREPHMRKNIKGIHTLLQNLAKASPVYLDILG
# Chain of MAP2K1 (human) (Q02750 whole entry, looked up): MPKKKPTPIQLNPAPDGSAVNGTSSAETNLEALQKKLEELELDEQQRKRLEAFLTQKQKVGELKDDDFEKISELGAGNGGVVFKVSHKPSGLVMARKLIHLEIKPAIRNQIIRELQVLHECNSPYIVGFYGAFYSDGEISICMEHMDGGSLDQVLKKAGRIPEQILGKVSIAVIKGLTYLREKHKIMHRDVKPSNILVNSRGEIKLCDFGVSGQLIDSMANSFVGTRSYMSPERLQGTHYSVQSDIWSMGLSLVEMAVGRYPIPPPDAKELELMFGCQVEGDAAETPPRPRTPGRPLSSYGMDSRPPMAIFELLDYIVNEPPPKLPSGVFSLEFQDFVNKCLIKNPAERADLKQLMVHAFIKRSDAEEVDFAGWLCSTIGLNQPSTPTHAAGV
# Chain of ADCK4 (human) (Q96D53 whole entry, looked up): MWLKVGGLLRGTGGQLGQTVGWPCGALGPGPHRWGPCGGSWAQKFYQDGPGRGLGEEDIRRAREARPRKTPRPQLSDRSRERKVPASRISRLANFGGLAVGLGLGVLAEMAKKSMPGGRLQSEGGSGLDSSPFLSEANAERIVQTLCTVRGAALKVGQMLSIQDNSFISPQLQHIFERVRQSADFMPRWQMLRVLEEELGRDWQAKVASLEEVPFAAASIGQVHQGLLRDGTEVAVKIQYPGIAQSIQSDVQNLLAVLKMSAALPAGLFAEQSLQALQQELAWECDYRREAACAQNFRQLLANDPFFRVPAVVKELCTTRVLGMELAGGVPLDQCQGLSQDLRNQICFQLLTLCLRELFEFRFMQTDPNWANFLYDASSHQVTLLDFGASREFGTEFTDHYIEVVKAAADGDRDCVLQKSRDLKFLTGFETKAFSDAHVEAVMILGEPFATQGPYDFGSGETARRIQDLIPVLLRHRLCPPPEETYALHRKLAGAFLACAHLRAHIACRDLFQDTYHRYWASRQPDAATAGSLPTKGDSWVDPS
# Chain of STK17B (human) (O94768 whole entry, looked up): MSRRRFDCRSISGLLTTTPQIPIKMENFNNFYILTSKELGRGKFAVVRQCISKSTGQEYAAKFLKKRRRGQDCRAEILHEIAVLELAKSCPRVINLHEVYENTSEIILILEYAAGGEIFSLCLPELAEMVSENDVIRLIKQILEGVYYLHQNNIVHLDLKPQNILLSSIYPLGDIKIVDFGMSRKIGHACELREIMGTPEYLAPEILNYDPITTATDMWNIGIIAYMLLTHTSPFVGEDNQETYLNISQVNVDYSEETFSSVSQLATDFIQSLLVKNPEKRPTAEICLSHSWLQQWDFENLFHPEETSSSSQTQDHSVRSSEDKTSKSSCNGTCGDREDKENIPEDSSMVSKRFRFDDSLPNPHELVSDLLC
# Chain of CDK9 (human) (P50750 whole entry, looked up): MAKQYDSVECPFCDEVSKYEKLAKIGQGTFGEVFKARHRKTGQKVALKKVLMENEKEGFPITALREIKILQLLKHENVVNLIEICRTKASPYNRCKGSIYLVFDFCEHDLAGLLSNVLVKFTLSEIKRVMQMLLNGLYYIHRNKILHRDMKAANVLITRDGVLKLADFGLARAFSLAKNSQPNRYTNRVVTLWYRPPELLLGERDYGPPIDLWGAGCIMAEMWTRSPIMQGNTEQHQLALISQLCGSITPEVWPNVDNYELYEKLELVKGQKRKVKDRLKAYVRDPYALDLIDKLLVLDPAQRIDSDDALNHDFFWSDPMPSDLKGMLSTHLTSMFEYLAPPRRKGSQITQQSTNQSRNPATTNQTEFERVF
# Chain of EPHA1 (human) (P21709 whole entry, looked up): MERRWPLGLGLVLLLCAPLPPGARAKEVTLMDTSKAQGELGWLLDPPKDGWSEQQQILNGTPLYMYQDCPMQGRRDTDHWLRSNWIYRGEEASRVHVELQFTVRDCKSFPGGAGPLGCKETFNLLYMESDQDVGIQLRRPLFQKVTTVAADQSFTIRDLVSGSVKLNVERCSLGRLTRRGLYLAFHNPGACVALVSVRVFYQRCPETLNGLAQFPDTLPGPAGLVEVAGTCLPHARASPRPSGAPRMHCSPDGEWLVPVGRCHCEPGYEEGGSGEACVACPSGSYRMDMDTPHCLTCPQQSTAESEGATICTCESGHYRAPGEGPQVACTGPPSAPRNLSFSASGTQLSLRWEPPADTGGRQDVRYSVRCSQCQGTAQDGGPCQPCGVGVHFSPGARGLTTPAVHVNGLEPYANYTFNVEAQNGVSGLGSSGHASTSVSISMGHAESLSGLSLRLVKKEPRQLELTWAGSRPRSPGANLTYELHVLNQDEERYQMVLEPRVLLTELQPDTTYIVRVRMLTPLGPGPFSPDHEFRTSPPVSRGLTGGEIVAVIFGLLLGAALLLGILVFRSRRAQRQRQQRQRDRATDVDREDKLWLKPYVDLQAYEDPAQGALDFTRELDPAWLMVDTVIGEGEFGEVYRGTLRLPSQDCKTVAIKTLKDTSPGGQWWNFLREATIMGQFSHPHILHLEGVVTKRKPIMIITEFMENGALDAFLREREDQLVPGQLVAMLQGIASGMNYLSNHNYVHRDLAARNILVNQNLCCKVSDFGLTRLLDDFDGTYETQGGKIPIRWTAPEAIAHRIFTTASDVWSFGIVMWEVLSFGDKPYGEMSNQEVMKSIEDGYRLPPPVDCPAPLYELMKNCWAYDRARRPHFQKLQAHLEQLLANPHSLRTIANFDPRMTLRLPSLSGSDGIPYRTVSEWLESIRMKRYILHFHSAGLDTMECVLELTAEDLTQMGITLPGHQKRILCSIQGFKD
structure (smiles),measurement,setting,value
O=c1[nH]c2ccccc2n1C1CCN(Cc2ccc(-c3nc4cc5[nH]cnc5cc4nc3-c3ccccc3)cc2)CC1,"kinase still bound, per cent of control",CDK17 (human),100%
same,"kinase still bound, per cent of control",PIM2 (human),91%
same,"kinase still bound, per cent of control",PAK1 (human),90%
same,"kinase still bound, per cent of control",EPHB4 (human),100%
same,"kinase still bound, per cent of control",SRPK2 (human),85%
same,"kinase still bound, per cent of control",FES (human),100%
same,"kinase still bound, per cent of control",SGK3 (human),75% and 100%
same,"kinase still bound, per cent of control",NTRK2 (human),85%
same,"kinase still bound, per cent of control",ABL2 (human),100%
same,"kinase still bound, per cent of control",FGFR3 (human),92%
same,"kinase still bound, per cent of control",CDC42BPG (human),92%
same,"kinase still bound, per cent of control",PRKCI (human),79%
same,"kinase still bound, per cent of control",SGK110 (human),81%
same,"kinase still bound, per cent of control",EPHA2 (human),100%
same,"kinase still bound, per cent of control",MAP2K1 (human),83%
same,"kinase still bound, per cent of control",PDGFRB (human),72%
same,"kinase still bound, per cent of control",CDK8 (human),100%
same,"kinase still bound, per cent of control",CDK13 (human),98%
same,"kinase still bound, per cent of control",EPHA1 (human),100%
same,"kinase still bound, per cent of control",CPK1 (P.falciparum),40%
same,"kinase still bound, per cent of control",STK17B (human),89%
same,"kinase still bound, per cent of control",IKBKB (human),79%
same,"kinase still bound, per cent of control",IGF1R (human),100%
same,"kinase still bound, per cent of control",CRK2 (P.falciparum),100%
same,"kinase still bound, per cent of control",KDR (human),86%
same,"kinase still bound, per cent of control",CSK (human),93%
same,"kinase still bound, per cent of control",CDKL1 (human),84%
same,"kinase still bound, per cent of control",PIM3 (human),100%
same,"kinase still bound, per cent of control",CDK9 (human),100%
same,"kinase still bound, per cent of control",CDK18 (human),97%
same,"kinase still bound, per cent of control",EPHA4 (human),100%
same,"kinase still bound, per cent of control",ADCK4 (human),100%
same,"kinase still bound, per cent of control",BMPR2 (human),100%
same,"kinase still bound, per cent of control",ITK (human),97%
same,"kinase still bound, per cent of control",STK33 (human),100%
same,"kinase still bound, per cent of control",LIMK1 (human),86%
same,"kinase still bound, per cent of control",PLK4 (human),60%
same,"kinase still bound, per cent of control",[1],89%
same,"kinase still bound, per cent of control",PRKACB (human),100%
same,"kinase still bound, per cent of control",TEC (human),100%
same,"kinase still bound, per cent of control",STK3 (human),100%
